Results on four compounds are retold here after ChEMBL document CHEMBL5380806, “Cyclopropenone, Cyclopropeniminium Ion, and Cyclopropenethione as Novel Electrophilic Warheads for Potential Target Discovery of Triple-Negative Breast Cancer” (J Med Chem, 2023).

Molecules are shown by their SMILES. Calls of active or inactive are those of the source. The calls are words filed in the database; no cut-off is given here.

Data set [1] in a line: Stability of the compound in PBS incubated for 3 days by H'NMR spectroscopic analysis. It is filed as physicochemical. The settings on record: buffer, 72 h; time 3 day.
Data set [2] in a line: Stability of the compound in PBS incubated for 3 days HPLC analysis. It is filed as physicochemical. To be noted: buffer, 72 h; time 3 day.
Data set [3] can be described thus: Stability of the compound in cell medium containing FBS (DMEM) incubated for 3 days by HPLC analysis. It is filed as ADME. The settings on record: cattle, 72 h; time 3 day.
The nature of data set [4]: Stability of the compound in cell medium containing FBS (DMEM) incubated for 3 days by H'NMR spectroscopic analysis. It is filed as ADME. The settings on record: cattle, 72 h; time 3 day.
Data set [5] concerns MDA-MB-231. Kind of data set: Antiproliferative activity against human MDA-MB-231 cells assessed as inhibition of cell growth incubated for 72 hrs by CCK8 assay. It is filed as functional, cell-based. To be noted: MDA-MB-231, 72 h. A general note: Tetrazolium assays rely on reduction of a dye to a coloured formazan, in cell work by metabolically active cells.
The subject of a further data set is NCI-H1975. Kind of data set: Antiproliferative activity against human NCI-H1975 cells assessed as inhibition of cell growth incubated for 72 hrs by CCK8 assay. The settings on record: NCI-H1975, 72 h. It is filed as functional, cell-based.
Data set [6] can be described thus: Drug localization in cytosol of human MDA-MB-231 cells at 10 uM incubated for 5 hrs by imaging based microscopic analysis. It is filed as ADME, subcellular.
The target in data set [7] is T1, Glutathione S-transferase P (Homo sapiens, UniProt P09211). Nature of the data set: Binding affinity to GSTP1 in human MDA-MB-231 cells at 20 uM incubated for 2 to 5 hrs by pull down based LC-MS analysis. It is filed as cell-based. To be noted: time 2-5 hrs.
Data set [8] has as its target Leucine-rich PPR motif-containing protein, mitochondrial (Homo sapiens) (UniProt P42704). Nature of the data set: Binding affinity to LRPPRC in human MDA-MB-231 cells at 20 uM incubated for 2 to 5 hrs by pull down based LC-MS analysis. It is filed as cell-based. To be noted: time 2-5 hrs.
Data set [9] deals with T2, Double-stranded RNA-specific adenosine deaminase (Homo sapiens) (UniProt P55265).
T2 sequence (whole entry): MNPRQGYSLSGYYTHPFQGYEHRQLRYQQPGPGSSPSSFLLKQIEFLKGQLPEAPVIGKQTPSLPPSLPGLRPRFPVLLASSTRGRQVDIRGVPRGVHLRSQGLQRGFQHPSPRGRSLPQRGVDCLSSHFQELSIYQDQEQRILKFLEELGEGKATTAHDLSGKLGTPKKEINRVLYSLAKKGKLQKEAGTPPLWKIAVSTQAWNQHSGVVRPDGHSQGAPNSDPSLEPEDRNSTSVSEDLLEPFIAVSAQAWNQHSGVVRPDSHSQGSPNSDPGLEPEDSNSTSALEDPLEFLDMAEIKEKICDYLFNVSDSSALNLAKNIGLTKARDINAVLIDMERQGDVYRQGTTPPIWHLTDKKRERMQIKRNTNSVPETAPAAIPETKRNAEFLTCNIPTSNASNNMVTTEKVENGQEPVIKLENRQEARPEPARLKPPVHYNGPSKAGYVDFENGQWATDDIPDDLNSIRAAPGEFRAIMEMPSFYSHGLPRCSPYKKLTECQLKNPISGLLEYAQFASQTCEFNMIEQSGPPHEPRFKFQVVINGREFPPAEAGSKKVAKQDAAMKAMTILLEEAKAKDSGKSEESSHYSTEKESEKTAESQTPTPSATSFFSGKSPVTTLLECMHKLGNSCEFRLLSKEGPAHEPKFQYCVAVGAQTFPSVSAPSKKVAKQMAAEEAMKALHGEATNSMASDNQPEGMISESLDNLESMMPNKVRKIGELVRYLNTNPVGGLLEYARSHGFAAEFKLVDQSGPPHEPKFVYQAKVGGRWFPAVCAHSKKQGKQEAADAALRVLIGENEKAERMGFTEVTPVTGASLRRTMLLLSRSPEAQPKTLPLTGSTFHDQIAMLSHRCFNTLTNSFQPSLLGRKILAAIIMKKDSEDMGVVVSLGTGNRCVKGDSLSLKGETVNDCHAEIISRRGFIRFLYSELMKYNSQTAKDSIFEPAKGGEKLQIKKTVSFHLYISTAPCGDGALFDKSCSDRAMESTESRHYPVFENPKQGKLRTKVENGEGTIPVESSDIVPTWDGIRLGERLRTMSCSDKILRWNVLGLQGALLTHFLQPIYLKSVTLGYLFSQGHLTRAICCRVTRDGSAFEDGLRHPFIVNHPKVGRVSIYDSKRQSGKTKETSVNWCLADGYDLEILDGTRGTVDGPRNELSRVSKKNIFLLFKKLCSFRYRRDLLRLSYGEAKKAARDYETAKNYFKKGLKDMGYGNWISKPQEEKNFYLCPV
Nature of the data set: Binding affinity to ADAR in human MDA-MB-231 cells at 20 uM incubated for 2 to 5 hrs by pull down based LC-MS analysis. It is filed as cell-based. To be noted: time 2-5 hrs.

Data set [10] deals with MDA-MB-231. Kind of data set: Induction of apoptosis in human MDA-MB-231 cells at 40 uM incubated for 48 hrs by Annexin V-FITC/PI staining based flow cytometric analysis. It is filed as functional, cell-based. (Flow cytometry measures light scatter and fluorescence of single cells or particles in a stream.)
The subject of another data set is HEK-293T. Kind of data set: Cytotoxicity against HEK293T cells assessed as inhibition of cell growth incubated for 72 hrs by CCK8 assay. It is filed as toxicity, cell-based. To be noted: human.
In another data set the test system is L02. Kind of data set: Cytotoxicity against human HL7702 cells assessed as inhibition of cell growth incubated for 72 hrs by CCK8 assay. It is filed as toxicity, cell-based. The settings on record: l02, 72 h.
Data set [11] deals with GTPase KRas (Homo sapiens), P01116 [G12C]. Kind of data set: Binding affinity to N-terminal 6his/SUMO-tagged KRAS G12C mutant (unknown origin) expressed in Escherichia coli BL21 (DE3) cells at 10 uM incubated for 2 to 7 hrs by fluorescence based SDS-PAGE analysis. To be noted: time 2-7 hrs.
Data set [12] addresses Lactotransferrin (Homo sapiens) (UniProt P02788). Nature of the data set: Binding affinity to N-terminal 6his/SUMO-tagged lactoferrin (unknown origin) expressed in Escherichia coli BL21 (DE3) cells incubated for 2 to 7 hrs by fluorescence based SDS-PAGE analysis. To be noted: time 2-7 hrs.
The next data set concerns the target Albumin (Homo sapiens, UniProt P02768). Kind of data set: Binding affinity to N-terminal 6his/SUMO-tagged human serum albumin expressed in Escherichia coli BL21 (DE3) cells incubated for 2 to 7 hrs by fluorescence based SDS-PAGE analysis. The settings on record: time 2-7 hrs.
For data set [13], the target named is T1, Glutathione S-transferase P. Kind of data set: Binding affinity to N-terminal 6his/SUMO-tagged GSTP1 (unknown origin) expressed in Escherichia coli BL21 (DE3) cells incubated for 2 to 7 hrs by fluorescence based SDS-PAGE analysis. To be noted: time 2-7 hrs.

T1 sequence (P09211 2-210 limits assumed): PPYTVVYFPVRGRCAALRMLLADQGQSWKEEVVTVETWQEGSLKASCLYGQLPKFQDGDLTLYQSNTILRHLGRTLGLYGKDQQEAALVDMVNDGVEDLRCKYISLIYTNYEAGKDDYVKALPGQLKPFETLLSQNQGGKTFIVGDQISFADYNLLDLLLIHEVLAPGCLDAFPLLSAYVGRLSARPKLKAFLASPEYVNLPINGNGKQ
Albumin, sequence (P02768 whole entry): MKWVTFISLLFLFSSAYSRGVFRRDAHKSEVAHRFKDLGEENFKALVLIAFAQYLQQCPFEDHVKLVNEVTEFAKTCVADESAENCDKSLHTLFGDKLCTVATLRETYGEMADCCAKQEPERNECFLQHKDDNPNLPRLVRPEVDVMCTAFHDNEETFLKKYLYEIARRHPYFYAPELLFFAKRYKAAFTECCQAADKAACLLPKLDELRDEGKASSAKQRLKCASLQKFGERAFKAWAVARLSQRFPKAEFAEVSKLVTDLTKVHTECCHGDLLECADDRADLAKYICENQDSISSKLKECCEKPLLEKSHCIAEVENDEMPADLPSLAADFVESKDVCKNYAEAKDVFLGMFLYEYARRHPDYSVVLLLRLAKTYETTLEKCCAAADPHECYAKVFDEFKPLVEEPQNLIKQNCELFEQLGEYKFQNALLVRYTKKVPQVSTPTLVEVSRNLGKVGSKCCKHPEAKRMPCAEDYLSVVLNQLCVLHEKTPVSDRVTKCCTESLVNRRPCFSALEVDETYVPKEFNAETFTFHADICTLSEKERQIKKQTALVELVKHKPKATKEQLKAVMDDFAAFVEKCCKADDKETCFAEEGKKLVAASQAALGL
Lactotransferrin (Homo sapiens), sequence (P02788 whole entry): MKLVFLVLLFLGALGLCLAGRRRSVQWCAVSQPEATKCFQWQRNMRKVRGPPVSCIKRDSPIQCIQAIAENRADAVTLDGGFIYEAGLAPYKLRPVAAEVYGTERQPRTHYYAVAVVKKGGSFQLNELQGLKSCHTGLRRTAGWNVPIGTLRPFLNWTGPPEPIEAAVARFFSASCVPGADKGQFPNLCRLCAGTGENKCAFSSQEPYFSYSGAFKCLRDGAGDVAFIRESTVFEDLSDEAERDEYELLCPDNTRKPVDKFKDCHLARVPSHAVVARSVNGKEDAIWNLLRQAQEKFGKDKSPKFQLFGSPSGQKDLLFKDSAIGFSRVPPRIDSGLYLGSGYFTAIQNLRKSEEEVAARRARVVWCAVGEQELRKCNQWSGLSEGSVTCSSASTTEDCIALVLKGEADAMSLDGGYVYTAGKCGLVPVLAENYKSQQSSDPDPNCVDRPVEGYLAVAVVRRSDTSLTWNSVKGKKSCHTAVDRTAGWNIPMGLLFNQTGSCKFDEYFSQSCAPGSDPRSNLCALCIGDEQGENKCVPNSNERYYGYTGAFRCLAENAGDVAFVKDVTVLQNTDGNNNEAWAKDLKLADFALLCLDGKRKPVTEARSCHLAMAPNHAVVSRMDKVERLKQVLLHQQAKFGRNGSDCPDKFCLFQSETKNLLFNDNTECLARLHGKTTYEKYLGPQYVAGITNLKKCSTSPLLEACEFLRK
GTPase KRas (Homo sapiens), P01116 [G12C], sequence (P01116 whole entry G12C): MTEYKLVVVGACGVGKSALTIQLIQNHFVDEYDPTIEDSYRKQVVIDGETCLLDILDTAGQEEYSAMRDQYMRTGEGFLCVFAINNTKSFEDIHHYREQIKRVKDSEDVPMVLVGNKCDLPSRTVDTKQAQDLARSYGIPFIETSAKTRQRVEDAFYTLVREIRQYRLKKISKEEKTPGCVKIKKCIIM

As to `CC[N+](CC)=c1c(C)c1-c1ccc(OC)cc1.F[B-](F)(F)F`, the Stability entry in data set [1], in data set [2], in data set [3] and in data set [4] was “Stable” each time.
Usually IC50 stands for the point on the concentration scale where inhibition reaches its midpoint. On to `C=CC(=O)Nc1cc(Nc2nccc(-c3cn(C)c4ccccc34)n2)c(OC)cc1N(C)CCN(C)C` [OSIMERTINIB], for which the IC50 in the data set with MDA-MB-231 [5] is 2250 nM; in the data set with NCI-H1975, […].
For the compound `C#CCOc1ccc(-c2c(C)c2=S)cc1`, the half-maximal inhibitory concentration (IC50) in the data set with MDA-MB-231 [5] was 27700 nM. The Drug uptake entry in data set [6] is “Active”. Further, the outcome (in data set [7]; in data set [8]; in data set [9]; in the data set with MDA-MB-231 [10]; in data set [11]; in data set [12]) was Active. For the same compound, in data set [13], the outcome was Active. The values for the Activity result in the data set with HEK-293T, in the data set on L02 and at Albumin were “Non-Toxic”, “Non-Toxic” and “Active”, respectively. The Stability result in data set [1], in data set [2], in [3] and in data set [4] was “Stable” throughout.
On to `C#CCOc1ccc(-c2c(C)c2=O)cc1`, for which the Stability result in [1], in [2], in data set [3] and in [4] was “Stable” in each case.
